# Measured values as given in patent publication US10696615B2, “Prenylated hydroxystilbenes” (The University of Sydney, priority 2011, dated 2020).
# What was measured:
# [1] = system: HOP-62; assay: NCI in vitro cancer screen, Non-Small Cell Lung Cancer; format: cell-based, human; settings: HOP-62; for GI50 / CC50: Homo sapiens; for CC50: read-out: LC50 (the source's name)
# [2] = system: EKVX; assay: as above; format: cell-based, human; settings: for GI50 / CC50: Homo sapiens; for CC50: read-out: LC50 (the source's name)
# [3] = system: CCRF-CEM; assay: NCI in vitro cancer screen, Leukemia; format: cell-based, human; settings: for GI50 / CC50: Homo sapiens; for CC50: read-out: LC50 (the source's name)
# [4] = system: MCF7; assay: NCI in vitro cancer screen, Breast Cancer; format: cell-based, human; settings: MCF7; for GI50 / CC50: Homo sapiens; for CC50: read-out: LC50 (the source's name)
# [5] = system: SNB-19; assay: NCI in vitro cancer screen, CNS Cancer; format: cell-based, human; settings: SNB-19; for GI50 / CC50: Homo sapiens; for CC50: read-out: LC50 (the source's name)
# [6] = system: NCI-H226; assay: NCI in vitro cancer screen, Non-Small Cell Lung Cancer; format: cell-based, human; settings: NCI-H226; for GI50 / LC50 (50% lethal concentration): Homo sapiens
# [7] = system: OVCAR-8; assay: NCI in vitro cancer screen, Ovarian Cancer; format: cell-based, human; settings: OVCAR-8; for GI50 / CC50: Homo sapiens; for CC50: read-out: LC50 (the source's name)
# [8] = system: OVCAR-4; assay: NCI in vitro cancer screen, Ovarian Cancer; format: cell-based, human; settings: OVCAR-4; for GI50 / CC50: Homo sapiens; for CC50: read-out: LC50 (the source's name)
# [9] = system: HT29; assay: NCI in vitro cancer screen, Colon Cancer; format: cell-based, human; settings: HT29; for GI50 / CC50: Homo sapiens, HT-29; for CC50: read-out: LC50 (the source's name)
# [10] = system: OVCAR-5; assay: NCI in vitro cancer screen, Ovarian Cancer; format: cell-based, human; settings: OVCAR-5; for GI50 / CC50: Homo sapiens; for CC50: read-out: LC50 (the source's name)
# [11] = system: SW-620; assay: NCI in vitro cancer screen, Colon Cancer; format: cell-based, human; settings: SW-620; for GI50 / CC50: Homo sapiens; for CC50: read-out: LC50 (the source's name)
# [12] = system: HOP-92; assay: NCI in vitro cancer screen, Non-Small Cell Lung Cancer; format: cell-based, human; settings: HOP-92; for GI50 / CC50: Homo sapiens; for CC50: read-out: LC50 (the source's name)
# [13] = system: MDA-MB-468; assay: NCI in vitro cancer screen, Breast Cancer; format: cell-based, human; settings: MDA-MB-468; for GI50 / CC50: Homo sapiens; for CC50: read-out: LC50 (the source's name)
# [14] = system: CAKI-1; assay: NCI in vitro cancer screen, Renal Cancer; format: cell-based, human; settings: CAKI-1; for GI50 / CC50: Homo sapiens; for CC50: read-out: LC50 (the source's name)
# [15] = system: DU-145; assay: NCI in vitro cancer screen, Prostate Cancer; format: cell-based, human; settings: DU-145; for GI50 / CC50: Homo sapiens; for CC50: read-out: LC50 (the source's name)
# [16] = system: SK-MEL-28; assay: NCI in vitro cancer screen, Melanoma; format: cell-based, human; settings: SK-MEL-28; for GI50 / LC50: Homo sapiens
# [17] = system: SF-268; assay: NCI in vitro cancer screen, CNS Cancer; format: cell-based, human; settings: SF-268; for GI50 / CC50: Homo sapiens; for CC50: read-out: LC50 (the source's name)
# [18] = system: TK-10; assay: NCI in vitro cancer screen, Renal Cancer; format: cell-based, human; settings: TK-10; for GI50 / LC50: Homo sapiens
# [19] = system: HS 578T; assay: NCI in vitro cancer screen, Breast Cancer; format: cell-based, human; settings: for GI50 / CC50: Homo sapiens; for CC50: read-out: LC50 (the source's name)
# [20] = system: HCT-116; assay: NCI in vitro cancer screen, Colon Cancer; format: cell-based, human; settings: HCT-116; for GI50 / LC50 (concentration killing 50% of cells): Homo sapiens
# [21] = system: SF-539; assay: NCI in vitro cancer screen, CNS Cancer; format: cell-based; settings: SF-539; for GI50 / CC50: Homo sapiens; for CC50: read-out: LC50 (the source's name)
# [22] = system: OVCAR-3; assay: NCI in vitro cancer screen, Ovarian Cancer; format: cell-based, human; settings: OVCAR-3; for GI50 / CC50: Homo sapiens; for CC50: read-out: LC50 (the source's name)
# [23] = system: UACC-257; assay: NCI in vitro cancer screen, Melanoma; format: cell-based, human; settings: UACC-257; for GI50 / CC50: Homo sapiens; for CC50: read-out: LC50 (the source's name)
# [24] = system: U251; assay: NCI in vitro cancer screen, CNS Cancer; format: cell-based, human; settings: U251; for GI50 / CC50: Homo sapiens, U-251; for CC50: read-out: LC50 (the source's name)
# [25] = system: NCI-H23; assay: NCI in vitro cancer screen, Non-Small Cell Lung Cancer; format: cell-based, human; settings: NCI-H23; for GI50 / LC50: Homo sapiens
# [26] = system: KM12; assay: NCI in vitro cancer screen, Colon Cancer; format: cell-based, human; settings: KM12; for GI50 / CC50: Homo sapiens; for CC50: read-out: LC50 (the source's name)
# [27] = system: SK-MEL-5; assay: NCI in vitro cancer screen, Melanoma; format: cell-based, human; settings: SK-MEL-5; for GI50 / CC50: Homo sapiens; for CC50: read-out: LC50 (the source's name)
# [28] = system: IGROV1; assay: NCI in vitro cancer screen, Ovarian Cancer; format: cell-based, human; settings: IGROV1; for GI50 / CC50: Homo sapiens, IGROV-1; for CC50: read-out: LC50 (the source's name)
smiles,measurement,setting,value
"CC(C)=CCc1c(O)cc(/C=C/c2ccc(O)c(O)c2)c(CC=C(C)C)c1O [USYDS7, (E)-2,4-di(3-methyl-2-buten-1-yl)-3,3′,4′,5-tetrahydroxystilbene]",TGI,[1],15.0 µM
same,GI50,[1],3.67 µM
same,CC50,[1],51.6 µM
same,TGI,[2],14.7 µM
same,GI50,[2],4.25 µM
same,CC50,[2],44.9 µM
same,TGI,[3],8.48 µM
same,GI50,[3],2.73 µM
same,CC50,[3],71.2 µM
same,GI50,[4],2.1 µM
same,CC50,[4],57.9 µM
same,TGI,[4],12.0 µM
same,GI50,[5],2.8 µM
same,CC50,[5],39.9 µM
same,TGI,[5],8.64 µM
same,GI50,[6],2.28 µM
same,LC50 (50% lethal concentration),[6],28.1 µM
same,TGI,[6],6.24 µM
same,GI50,[7],1.68 µM
same,CC50,[7],7.95 µM
same,TGI,[7],3.65 µM
same,GI50,[8],2.85 µM
same,CC50,[8],66.8 µM
same,TGI,[8],11.1 µM
same,TGI,[9],10.8 µM
same,GI50,[9],3.64 µM
same,CC50,[9],45.8 µM
same,GI50,[10],3.04 µM
same,CC50,[10],39 µM
same,TGI,[10],11.6 µM
same,GI50,[11],1.58 µM
same,CC50,[11],6.42 µM
same,TGI,[11],3.19 µM
same,TGI,[12],4.21 µM
same,GI50,[12],1.52 µM
same,CC50,[12],14.2 µM
same,GI50,[13],2.12 µM
same,CC50,[13],13.9 µM
same,TGI,[13],4.84 µM
same,TGI,[14],16.2 µM
same,GI50,[14],4.24 µM
same,CC50,[14],49 µM
same,TGI,[15],7.62 µM
same,GI50,[15],2.65 µM
same,CC50,[15],28.3 µM
same,GI50,[16],3.65 µM
same,LC50,[16],36.7 µM
same,TGI,[16],11.8 µM
same,GI50,[17],2.26 µM
same,CC50,[17],22.7 µM
same,TGI,[17],5.47 µM
same,GI50,[18],3.62 µM
same,LC50,[18],34.3 µM
same,TGI,[18],11.2 µM
same,TGI,[19],8.09 µM
same,GI50,[19],1.84 µM
same,CC50,[19],50.9 µM
same,TGI,[20],3.02 µM
same,GI50,[20],1.57 µM
same,LC50 (concentration killing 50% of cells),[20],5.82 µM
same,GI50,[21],2.21 µM
same,CC50,[21],35.2 µM
same,TGI,[21],6.14 µM
same,GI50,[22],1.82 µM
same,CC50,[22],6.19 µM
same,TGI,[22],3.36 µM
same,GI50,[23],2.18 µM
same,CC50,[23],23 µM
same,TGI,[23],5.93 µM
same,GI50,[24],1.49 µM
same,CC50,[24],5.74 µM
same,TGI,[24],2.93 µM
same,GI50,[25],1.81 µM
same,LC50,[25],29.5 µM
same,TGI,[25],5.22 µM
same,GI50,[26],1.93 µM
same,CC50,[26],7.79 µM
same,TGI,[26],3.88 µM
same,GI50,[27],1.8 µM
same,CC50,[27],7.54 µM
same,TGI,[27],3.68 µM
same,GI50,[28],3.12 µM
same,CC50,[28],36.7 µM
same,TGI,[28],8.39 µM
"COc1cc(O)cc(/C=C/c2ccc(O)c(O)c2)c1CC=C(C)C [USYDS9, (E)-2-(3-methyl-2-buten-1-yl)-3′,4′,5-trihydroxy-3-methoxystilbene]",TGI,[1],>100 µM
same,GI50,[1],2.87 µM
same,CC50,[1],> 100 µM
same,TGI,[2],>100 µM
same,GI50,[2],26.4 µM
same,CC50,[2],> 100 µM
same,TGI,[3],>100 µM
same,GI50,[3],2.14 µM
same,CC50,[3],> 100 µM
same,GI50,[4],2.81 µM
same,CC50,[4],> 100 µM
same,TGI,[4],>100 µM
same,GI50,[5],0.55 µM
same,CC50,[5],> 100 µM
same,TGI,[5],>100 µM
same,GI50,[6],18.6 µM
same,LC50 (50% lethal concentration),[6],> 100 µM
same,TGI,[6],57.9 µM
same,GI50,[7],0.5 µM
same,CC50,[7],> 100 µM
same,TGI,[7],38.3 µM
same,GI50,[8],5.48 µM
same,CC50,[8],> 100 µM
same,TGI,[8],>100 µM
same,TGI,[9],46.6 µM
same,GI50,[9],18.6 µM
same,CC50,[9],> 100 µM
same,GI50,[10],30.7 µM
same,CC50,[10],> 100 µM
same,TGI,[10],>100 µM
same,GI50,[11],0.31 µM
same,CC50,[11],75 µM
same,TGI,[11],15.3 µM
same,TGI,[12],>100 µM
same,GI50,[12],0.62 µM
same,CC50,[12],> 100 µM
same,GI50,[13],2.42 µM
same,CC50,[13],> 100 µM
same,TGI,[13],8.48 µM
same,TGI,[14],>100 µM
same,GI50,[14],19.1 µM
same,CC50,[14],> 100 µM
same,TGI,[15],2.62 µM
same,GI50,[15],0.35 µM
same,CC50,[15],> 100 µM
same,GI50,[16],8.14 µM
same,LC50,[16],> 100 µM
same,TGI,[16],>100 µM
same,GI50,[17],0.63 µM
same,CC50,[17],> 100 µM
same,TGI,[17],37.6 µM
same,GI50,[18],5.34 µM
same,LC50,[18],> 100 µM
same,TGI,[18],41.2 µM
same,TGI,[19],0.73 µM
same,GI50,[19],0.2 µM
same,CC50,[19],> 100 µM
same,TGI,[20],12.8 µM
same,GI50,[20],1.4 µM
same,LC50 (concentration killing 50% of cells),[20],75 µM
same,GI50,[21],0.28 µM
same,CC50,[21],> 100 µM
same,TGI,[21],1.02 µM
same,GI50,[22],0.9 µM
same,CC50,[22],24.8 µM
same,TGI,[22],3.84 µM
same,GI50,[23],6.15 µM
same,CC50,[23],> 100 µM
same,TGI,[23],59.2 µM
same,GI50,[24],0.59 µM
same,CC50,[24],> 100 µM
same,TGI,[24],19.6 µM
same,GI50,[25],1.43 µM
same,LC50,[25],> 100 µM
same,TGI,[25],>100 µM
same,GI50,[26],0.52 µM
same,CC50,[26],63.9 µM
same,TGI,[26],12.2 µM
same,GI50,[27],0.39 µM
same,CC50,[27],> 100 µM
same,TGI,[27],2.52 µM
same,GI50,[28],4.57 µM
same,CC50,[28],> 100 µM
same,TGI,[28],>100 µM
